Numbers after ± are expanded uncertainties.
Conditions: 298.15 K; 101.33 kPa; Liquid; Vibrating tube method

molar volume [m3/mol] | Compound
0.0001088 ± 5e-08 | C1CCCCC1 [cyclohexane]
8.174e-05 ± 4e-08 | C1CCOC1 [tetrahydrofuran]
8.071e-05 ± 4e-08 | ClC(Cl)Cl [trichloromethane]

— the NIST ThermoML archive (doi:10.1016/j.fluid.2010.06.007)
